Non-standard residues stand in square brackets, D forms with d. No end group written: not given here. Ahx = NCCCCCC(=O)O
Key:
[1] = system: E2 ubiquitination reaction; settings: patent application GB 2,320,570; cited from earlier work
[2] = system: [125I]-lysozyme degradation in the reticulocyte lysate; experiment: inhibition of [125I]-lysozyme degradation in reticulocyte lysate by ubiquitination recognition elements; assay type: biochemical, rabbit; settings: for lysozyme degradation, result at the 2 hour time point: no treatment 12,475 cpm
Description: Proteins were labeled by Lofstrand Laboratories Ltd. (Gaithersburg, Md.) Labeled to […] by oxidation of Na^125I using an iodobead chloramine-T procedure. The ubiquitin-dependent protein degradation assay was preformed by the addition of 70 μL of rabbit reticulocyte lysate and 5 uL of 0.06 μCi/μL ^25I-labeled protein to […] of reaction buffer containing 40 mM Tris pH 7.6, 2 mM DTT, 5 mM MgCl2, 0.5 mM ATP, 35 μg creatine phosphokinase (Sigma) and 10 mM phosphocreatine. The reaction were run at 37 C. in a heating block, and at time points 30 μL of the reaction was transferred to 50 μl of cold 100 mg/mL BSA and protein was precipitated by the addition of 420 μL of 23% TCA followed by 15 min on ice. The precipitated samples were microfuged for 2 min at 5000 rpm and 300 μL of supernatant was then counted for TCA-soluble ^125I on a gamma counter (Hidex).
In order to determine if a given molecule or molecular element is potentially valuable as a ubiquitination recognition element the assay described above is run with [^125I]-lysozyme or other labeled protein substrates in the presence of potential ubiquitination recognition elements.
The results at the 2 hour time point were 12,475 cpm for no treatment, 6,486 cpm for the 2 mM Arg-εAhx-Cys treatment and 3,592 cpm for the 5 mM Phe-εAhx-Cys treatment.

O=S(=O)(O)c1cc(Nc2nc(Cl)nc(Nc3ccc(Cl)c(Nc4nc(Cl)nc(Nc5cc(S(=O)(=O)O)cc6cc(S(=O)(=O)O)c(N=Nc7ccc8ccccc8c7S(=O)(=O)O)c(O)c56)n4)c3)n2)c2c(O)c(N=Nc3ccc4ccccc4c3S(=O)(=O)O)c(S(=O)(=O)O)cc2c1 [compound Z, 1-chloro-2,4-bis{4-[2-chloro-6-(5-(2,7-disulfo-4-hydroxy-3-(2-(1-sulfonaphthyl)azo)naphthyl)amino)-1,3,5-triazinyl]amino}benzene]
inhibition of an E2 ubiquitination reaction [1]: inhibited an E2 ubiquitination reaction

Arg-εAhx-Cys (Arg-[Ahx]-Cys) [ubiquitination recognition element, Type I recognition with caproic acid linker and C-terminal Cys]
effect on lysozyme degradation in the reticulocyte lysate [2]: inhibition of the lysozyme degradation
lysozyme degradation, result at the 2 hour time point ([2]; 2 mM treatment): 6,486 cpm

Phe-εAhx-Cys (Phe-[Ahx]-Cys) [ubiquitination recognition element, Type II recognition with caproic acid linker and C-terminal Cys]
effect on lysozyme degradation in the reticulocyte lysate [2]: inhibition of the lysozyme degradation
lysozyme degradation, result at the 2 hour time point ([2]; 5 mM treatment): 3,592 cpm

From patent US6559280B2, “Controlling protein levels in eucaryotic organisms” (Proteinix, Inc., priority 1999, dated 2003)
